Assay: Acute toxicity in mice after oral administration
Settings: mouse, in vivo

In the case of `C=C1C[C@@]23CC[C@H]4[C@@](C)(CCC[C@@]4(C)C(=O)O[C@@H]4O[C@H](CO)[C@@H](O)[C@H](O)[C@H]4O)[C@@H]2CC[C@]1(O[C@@H]1O[C@H](CO)[C@@H](O)[C@H](O)[C@H]1O[C@@H]1O[C@H](CO)[C@@H](O)[C@H](O)[C@H]1O)C3` [STEVIOSIDE], the LD50 is reported as > 8200 mg/kg and the LD50 (read-out: LD50) is reported as > 15000 mg/kg.

Reference: ChEMBL document CHEMBL1121864, “Diterpenoid sweeteners. Synthesis and sensory evaluation of stevioside analogues nondegradable to steviol” (J Med Chem, 1981)
